Data taken from patent publication US8470844B2, “Imidazoacridinone derivative compounds and methods for their use” (Technion Research & Development Foundation Limited, priority 2008, dated 2013).

Columns and labels:
A549 cells = experiment: MTT cytotoxicity assay, parental A549 cells; type: cell-based, Human; conditions: 96 hours exposure, mean of at least three experiments
Procedure: Tissue culture: Human non-small cell lung cancer A549 cells and T-cell leukemia CCRF-CEM cells were grown under monolayer conditions or up to a maximal density of 10^6 cells/ml (for CCRF-CEM cells) in RPMI-1640 medium (GIBCO) supplemented with 10% fetal calf serum, 2 mM glutamine, 100 μg/ml penicillin and 100 μg/ml streptomycin (Biological Industries, Beth-Haemek, Israel) in a humid atmosphere of 5% CO2. Drug resistant A549/K1.5 cells with ABCG2 overexpression were maintained under a continuous drug selection with 1.5 μM C-1305. Bram, E. E., et al., (2007) Biochem Pharmacol 74(1), 41-53.
Cytotoxicity and growth inhibition assays: The cytotoxic activity of the various IA antitumor agents was determined using the MTT assay. Poindessous, V., et al., (2003) Clin Cancer Res 9(7), 2817-2825.
Exponentially growing cells were seeded at 5×10^3 cells/well in 24-well plates (2 ml medium/well). Following an overnight incubation, cells were exposed to different drug concentrations for 96 hours. Cellular viability was determined by adding the tetrazolium salt MTT for 4 h at 37° C., followed by solubilization of the intracellular precipitated formazan in 1 ml DMSO and absorbance was determined by a microplate reader (ASYS Hitech GmbH, Austria). Drug concentrations required to inhibit cell growth by 50% (IC50) compared with untreated controls were determined from the curves of survival versus drug concentrations using the SlideWrite software (Advanced Graphics Software, Inc., Encinitas, Calif.). Resistance folds (RF) were calculated by dividing the IC50 value of the resistant cells by that of the parental cell line. Values presented are means of at least three independent experiments, each performed in duplicates.

[1] = target: T1, FLT3 receptor tyrosine kinase (Homo sapiens, UniProt P36888); conditions: preclinical, from cited literature; cited from earlier work
T1 sequence (P36888 27-993): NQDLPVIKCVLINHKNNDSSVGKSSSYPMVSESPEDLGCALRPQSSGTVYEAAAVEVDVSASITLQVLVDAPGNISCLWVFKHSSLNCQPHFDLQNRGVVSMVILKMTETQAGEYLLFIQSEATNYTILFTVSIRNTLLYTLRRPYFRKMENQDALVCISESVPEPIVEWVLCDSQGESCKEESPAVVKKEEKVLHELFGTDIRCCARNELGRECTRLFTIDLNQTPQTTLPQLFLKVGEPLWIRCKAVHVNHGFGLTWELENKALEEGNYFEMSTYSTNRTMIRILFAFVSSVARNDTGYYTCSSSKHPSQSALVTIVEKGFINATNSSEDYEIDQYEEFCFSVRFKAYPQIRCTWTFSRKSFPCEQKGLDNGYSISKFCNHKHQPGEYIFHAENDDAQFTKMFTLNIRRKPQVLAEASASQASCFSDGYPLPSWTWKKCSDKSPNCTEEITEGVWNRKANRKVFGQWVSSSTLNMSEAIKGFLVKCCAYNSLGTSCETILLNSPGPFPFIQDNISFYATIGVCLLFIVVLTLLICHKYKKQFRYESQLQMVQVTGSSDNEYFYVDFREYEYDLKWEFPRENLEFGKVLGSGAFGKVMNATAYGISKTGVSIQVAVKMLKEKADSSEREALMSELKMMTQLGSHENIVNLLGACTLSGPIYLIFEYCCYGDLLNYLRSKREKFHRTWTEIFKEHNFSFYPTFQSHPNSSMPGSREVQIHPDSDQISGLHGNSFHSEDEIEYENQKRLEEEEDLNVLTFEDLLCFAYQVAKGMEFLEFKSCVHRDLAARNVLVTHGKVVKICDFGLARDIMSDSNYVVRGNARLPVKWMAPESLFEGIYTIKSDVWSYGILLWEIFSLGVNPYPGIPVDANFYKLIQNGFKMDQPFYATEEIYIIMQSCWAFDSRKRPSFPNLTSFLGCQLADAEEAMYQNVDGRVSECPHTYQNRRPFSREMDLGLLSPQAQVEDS

CCN(CC)CCNc1ccc2ncn3c4ccc(O)cc4c(=O)c1c23 [C-1311]
IC50 (A549 cells): 0.27 ± 0.012 µM
FLT3 receptor tyrosine kinase inhibition (in words) [1]: potent and selective FLT3 receptor tyrosine kinase inhibitor
